Results on two compounds are retold here after article PMC8213057, “Targeting ALK2: An Open Science Approach to Developing Therapeutics for the Treatment of Diffuse Intrinsic Pontine Glioma” (Journal of Medicinal Chemistry, 2020).

In data set [1] the target is T1, CYP2C9 (Homo sapiens, UniProt P11712).
T1 construct: tissue Corning 452117; host or cells: pooled human liver microsomes (UltraPool HLM 150, mixed gender)
As to the kind of experiment: CYP inhibition assay. It counts as in vitro ADME. Conditions: human liver microsomes. In general terms: Liver microsomes are vesicles of endoplasmic reticulum, rich in cytochrome P450 enzymes.

In data set [2] the target is CAMK1d (Homo sapiens, UniProt Q8IU85). The settings on record: 1 μM; Run 1, Run 2.
Data set [3] concerns the target CDC7/DBF4 (Homo sapiens, UniProt O00311). The settings on record: 1 μM; Run 1, Run 2.
For data set [4], the target named is PKCb2 (Homo sapiens, UniProt P05771). The settings on record: 1 μM; Run 1, Run 2.
For data set [5], the target named is T2, ULK3 (Homo sapiens, UniProt Q6PHR2).
T2 sequence (Q6PHR2 1-472): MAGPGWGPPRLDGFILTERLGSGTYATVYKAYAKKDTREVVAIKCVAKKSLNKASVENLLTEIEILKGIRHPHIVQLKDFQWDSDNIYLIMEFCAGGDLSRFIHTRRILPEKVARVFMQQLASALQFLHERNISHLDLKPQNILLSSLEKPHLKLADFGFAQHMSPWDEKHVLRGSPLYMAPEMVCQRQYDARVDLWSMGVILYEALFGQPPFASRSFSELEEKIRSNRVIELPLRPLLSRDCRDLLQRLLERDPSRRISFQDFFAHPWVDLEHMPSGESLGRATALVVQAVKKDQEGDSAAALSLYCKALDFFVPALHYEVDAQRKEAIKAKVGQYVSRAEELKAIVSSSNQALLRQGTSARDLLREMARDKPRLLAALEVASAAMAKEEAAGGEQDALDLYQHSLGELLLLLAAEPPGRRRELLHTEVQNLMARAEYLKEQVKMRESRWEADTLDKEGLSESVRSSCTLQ
Conditions: 1 μM; Run 1, Run 2.

The target of data set [6] is AKT1 (Homo sapiens, UniProt P31749). Description: biochemical. Conditions: read-out: % enzyme activity, 1 μM; Run 1, Run 2.
In data set [7] the target is CK1d (Homo sapiens, UniProt P48730). Description: biochemical. Conditions: read-out: % enzyme activity, 1 μM; Run 1, Run 2.
The target of data set [8] is CLK1 (Homo sapiens, UniProt P49759). Description: biochemical. Conditions: read-out: % enzyme activity, 1 μM; Run 1, Run 2.
In data set [9] the target is T3, LATS1 (Homo sapiens, UniProt O95835).
T3 sequence (O95835 1-1130): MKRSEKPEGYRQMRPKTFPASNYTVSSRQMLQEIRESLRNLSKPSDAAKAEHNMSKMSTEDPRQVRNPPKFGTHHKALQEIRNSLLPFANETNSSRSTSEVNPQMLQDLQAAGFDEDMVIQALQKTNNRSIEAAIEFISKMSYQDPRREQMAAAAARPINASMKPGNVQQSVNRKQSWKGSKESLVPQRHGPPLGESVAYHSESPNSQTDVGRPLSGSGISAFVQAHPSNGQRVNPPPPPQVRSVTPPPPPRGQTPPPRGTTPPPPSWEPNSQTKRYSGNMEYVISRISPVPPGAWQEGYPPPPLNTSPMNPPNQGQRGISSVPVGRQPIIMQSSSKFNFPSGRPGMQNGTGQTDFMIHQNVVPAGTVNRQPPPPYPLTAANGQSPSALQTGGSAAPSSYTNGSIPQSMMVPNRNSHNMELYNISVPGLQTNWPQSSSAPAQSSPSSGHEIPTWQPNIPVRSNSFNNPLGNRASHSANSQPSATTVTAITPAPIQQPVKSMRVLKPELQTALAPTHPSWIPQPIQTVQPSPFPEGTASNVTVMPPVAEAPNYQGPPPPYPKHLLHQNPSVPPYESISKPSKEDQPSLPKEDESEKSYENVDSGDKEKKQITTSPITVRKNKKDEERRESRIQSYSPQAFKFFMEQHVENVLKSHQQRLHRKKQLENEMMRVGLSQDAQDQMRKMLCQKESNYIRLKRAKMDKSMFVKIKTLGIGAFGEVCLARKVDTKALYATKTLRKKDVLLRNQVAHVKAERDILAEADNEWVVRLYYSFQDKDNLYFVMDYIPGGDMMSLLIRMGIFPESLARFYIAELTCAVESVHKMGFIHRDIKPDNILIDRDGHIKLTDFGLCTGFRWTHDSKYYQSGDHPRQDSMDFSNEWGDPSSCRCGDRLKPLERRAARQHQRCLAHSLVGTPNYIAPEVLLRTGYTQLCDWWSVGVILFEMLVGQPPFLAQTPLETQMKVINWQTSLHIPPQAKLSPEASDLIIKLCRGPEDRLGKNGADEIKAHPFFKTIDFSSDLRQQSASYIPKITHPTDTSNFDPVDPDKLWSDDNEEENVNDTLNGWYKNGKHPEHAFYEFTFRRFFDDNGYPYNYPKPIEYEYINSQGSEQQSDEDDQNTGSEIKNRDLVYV
As to the kind of experiment: biochemical. The settings on record: read-out: % enzyme activity, 1 μM; Run 1, Run 2.

The target of data set [10] is T4, MAK (Homo sapiens, UniProt P20794).
T4 sequence (P20794 1-623): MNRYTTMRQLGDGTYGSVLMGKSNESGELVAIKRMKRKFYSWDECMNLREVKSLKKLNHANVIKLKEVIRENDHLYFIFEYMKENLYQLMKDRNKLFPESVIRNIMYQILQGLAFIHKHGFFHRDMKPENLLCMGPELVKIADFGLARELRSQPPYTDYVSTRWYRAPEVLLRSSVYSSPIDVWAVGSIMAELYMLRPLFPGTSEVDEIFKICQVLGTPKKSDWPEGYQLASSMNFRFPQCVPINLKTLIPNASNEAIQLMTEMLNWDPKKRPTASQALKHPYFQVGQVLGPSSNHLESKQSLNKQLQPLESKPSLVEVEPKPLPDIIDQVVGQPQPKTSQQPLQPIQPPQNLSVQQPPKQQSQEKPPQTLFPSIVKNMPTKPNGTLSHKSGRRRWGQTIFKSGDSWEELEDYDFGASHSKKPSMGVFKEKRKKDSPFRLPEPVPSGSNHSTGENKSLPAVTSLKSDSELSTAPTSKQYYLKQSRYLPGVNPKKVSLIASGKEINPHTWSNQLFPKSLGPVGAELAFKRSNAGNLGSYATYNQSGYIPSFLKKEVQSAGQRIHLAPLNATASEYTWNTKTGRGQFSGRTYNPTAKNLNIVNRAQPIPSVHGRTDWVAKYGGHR
Description: biochemical. Conditions: read-out: % enzyme activity, 1 μM; Run 1, Run 2.

The target in data set [11] is PDGFRb (Homo sapiens, UniProt P09619). As to the kind of experiment: biochemical. The settings on record: read-out: % enzyme activity, 1 μM; Run 1, Run 2.
The target in data set [12] is PKAcb (Homo sapiens, UniProt P22694). Description: biochemical. Conditions: read-out: % enzyme activity, 1 μM; Run 1, Run 2.
For data set [13], the target named is STK39/STLK3 (Homo sapiens, UniProt Q9UEW8). Description: biochemical. Conditions: read-out: % enzyme activity, 1 μM; Run 1, Run 2.

Molecules are shown by their SMILES.

Sequence of CK1d (P48730 whole entry): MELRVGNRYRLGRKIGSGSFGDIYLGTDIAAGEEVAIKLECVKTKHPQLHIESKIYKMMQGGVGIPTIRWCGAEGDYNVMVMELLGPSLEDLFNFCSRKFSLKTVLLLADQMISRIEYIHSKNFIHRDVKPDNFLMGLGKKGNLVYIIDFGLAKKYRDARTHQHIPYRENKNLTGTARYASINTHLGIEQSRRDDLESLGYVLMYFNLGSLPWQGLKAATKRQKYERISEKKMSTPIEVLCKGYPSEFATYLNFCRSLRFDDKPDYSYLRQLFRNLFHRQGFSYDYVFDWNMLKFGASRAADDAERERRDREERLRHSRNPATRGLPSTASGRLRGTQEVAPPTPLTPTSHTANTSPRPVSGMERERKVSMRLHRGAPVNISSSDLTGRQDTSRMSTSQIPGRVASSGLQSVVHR
Sequence of CLK1 (P49759 whole entry): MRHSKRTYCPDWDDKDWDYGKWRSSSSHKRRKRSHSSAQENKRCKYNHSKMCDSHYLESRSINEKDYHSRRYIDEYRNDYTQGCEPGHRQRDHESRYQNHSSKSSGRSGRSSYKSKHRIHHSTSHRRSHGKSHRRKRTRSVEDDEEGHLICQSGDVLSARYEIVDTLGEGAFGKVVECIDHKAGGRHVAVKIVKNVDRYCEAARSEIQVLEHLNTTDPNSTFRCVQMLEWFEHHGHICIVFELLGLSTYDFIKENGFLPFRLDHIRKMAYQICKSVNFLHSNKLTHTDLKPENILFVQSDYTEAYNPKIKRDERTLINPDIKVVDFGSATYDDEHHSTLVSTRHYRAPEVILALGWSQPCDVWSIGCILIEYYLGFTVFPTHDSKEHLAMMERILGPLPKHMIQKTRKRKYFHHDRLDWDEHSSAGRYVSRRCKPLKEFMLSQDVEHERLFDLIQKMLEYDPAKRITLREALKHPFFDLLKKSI
Sequence of PKCb2 (P05771 1-673 isoform P05771-2): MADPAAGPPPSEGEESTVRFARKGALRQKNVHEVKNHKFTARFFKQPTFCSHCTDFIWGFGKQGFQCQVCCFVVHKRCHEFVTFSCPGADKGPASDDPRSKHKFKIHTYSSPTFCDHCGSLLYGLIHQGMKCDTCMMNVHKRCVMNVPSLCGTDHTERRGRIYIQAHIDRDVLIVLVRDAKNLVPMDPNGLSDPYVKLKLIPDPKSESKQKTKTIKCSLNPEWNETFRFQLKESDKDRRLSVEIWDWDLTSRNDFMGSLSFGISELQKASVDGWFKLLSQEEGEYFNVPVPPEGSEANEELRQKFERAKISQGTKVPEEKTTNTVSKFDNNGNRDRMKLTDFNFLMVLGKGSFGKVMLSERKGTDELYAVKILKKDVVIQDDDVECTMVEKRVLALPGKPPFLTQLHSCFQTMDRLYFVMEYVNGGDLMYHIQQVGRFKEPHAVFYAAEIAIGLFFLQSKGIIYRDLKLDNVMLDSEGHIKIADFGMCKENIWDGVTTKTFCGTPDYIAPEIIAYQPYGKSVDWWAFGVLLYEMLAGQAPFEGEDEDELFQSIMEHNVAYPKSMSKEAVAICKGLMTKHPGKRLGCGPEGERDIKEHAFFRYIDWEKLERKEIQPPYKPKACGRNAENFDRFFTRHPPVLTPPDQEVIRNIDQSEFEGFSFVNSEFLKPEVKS
Sequence of PDGFRb (P09619 33-1106): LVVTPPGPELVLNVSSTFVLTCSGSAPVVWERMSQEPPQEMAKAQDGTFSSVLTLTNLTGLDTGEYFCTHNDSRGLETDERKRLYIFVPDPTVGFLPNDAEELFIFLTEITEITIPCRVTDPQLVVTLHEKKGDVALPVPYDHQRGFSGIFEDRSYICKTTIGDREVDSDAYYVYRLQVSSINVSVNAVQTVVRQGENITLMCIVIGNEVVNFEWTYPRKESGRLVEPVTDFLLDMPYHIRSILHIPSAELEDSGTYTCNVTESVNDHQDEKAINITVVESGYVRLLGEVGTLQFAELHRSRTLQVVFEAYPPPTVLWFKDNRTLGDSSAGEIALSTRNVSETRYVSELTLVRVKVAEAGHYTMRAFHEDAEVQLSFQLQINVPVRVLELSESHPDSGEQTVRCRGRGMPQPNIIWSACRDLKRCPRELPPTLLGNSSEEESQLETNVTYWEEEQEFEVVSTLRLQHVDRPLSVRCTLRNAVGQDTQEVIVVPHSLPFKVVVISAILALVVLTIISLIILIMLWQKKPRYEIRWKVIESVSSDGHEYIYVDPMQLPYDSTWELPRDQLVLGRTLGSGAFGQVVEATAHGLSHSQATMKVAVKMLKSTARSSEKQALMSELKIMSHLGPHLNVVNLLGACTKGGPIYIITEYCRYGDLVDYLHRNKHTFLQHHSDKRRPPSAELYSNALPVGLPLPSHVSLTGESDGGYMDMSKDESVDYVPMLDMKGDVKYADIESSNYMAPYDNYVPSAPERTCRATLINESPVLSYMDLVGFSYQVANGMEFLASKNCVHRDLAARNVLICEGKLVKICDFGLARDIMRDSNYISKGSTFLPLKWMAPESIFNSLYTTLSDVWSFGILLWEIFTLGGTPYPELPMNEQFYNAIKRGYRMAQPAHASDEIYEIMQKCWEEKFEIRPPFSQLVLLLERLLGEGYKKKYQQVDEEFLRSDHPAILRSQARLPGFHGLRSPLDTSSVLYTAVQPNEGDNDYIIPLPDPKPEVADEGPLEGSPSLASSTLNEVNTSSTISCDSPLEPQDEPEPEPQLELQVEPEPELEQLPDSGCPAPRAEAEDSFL
Sequence of CAMK1d (Q8IU85 whole entry): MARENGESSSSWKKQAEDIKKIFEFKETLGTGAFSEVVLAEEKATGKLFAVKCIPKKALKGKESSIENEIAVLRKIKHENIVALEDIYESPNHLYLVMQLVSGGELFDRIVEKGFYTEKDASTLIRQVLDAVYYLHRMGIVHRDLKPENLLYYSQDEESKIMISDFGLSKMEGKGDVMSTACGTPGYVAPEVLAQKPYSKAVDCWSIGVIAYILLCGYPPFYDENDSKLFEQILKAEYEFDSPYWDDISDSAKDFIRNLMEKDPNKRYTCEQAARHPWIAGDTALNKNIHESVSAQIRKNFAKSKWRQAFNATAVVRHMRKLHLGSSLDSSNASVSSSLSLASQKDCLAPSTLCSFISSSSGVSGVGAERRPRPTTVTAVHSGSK
Sequence of CDC7/DBF4 (O00311 whole entry): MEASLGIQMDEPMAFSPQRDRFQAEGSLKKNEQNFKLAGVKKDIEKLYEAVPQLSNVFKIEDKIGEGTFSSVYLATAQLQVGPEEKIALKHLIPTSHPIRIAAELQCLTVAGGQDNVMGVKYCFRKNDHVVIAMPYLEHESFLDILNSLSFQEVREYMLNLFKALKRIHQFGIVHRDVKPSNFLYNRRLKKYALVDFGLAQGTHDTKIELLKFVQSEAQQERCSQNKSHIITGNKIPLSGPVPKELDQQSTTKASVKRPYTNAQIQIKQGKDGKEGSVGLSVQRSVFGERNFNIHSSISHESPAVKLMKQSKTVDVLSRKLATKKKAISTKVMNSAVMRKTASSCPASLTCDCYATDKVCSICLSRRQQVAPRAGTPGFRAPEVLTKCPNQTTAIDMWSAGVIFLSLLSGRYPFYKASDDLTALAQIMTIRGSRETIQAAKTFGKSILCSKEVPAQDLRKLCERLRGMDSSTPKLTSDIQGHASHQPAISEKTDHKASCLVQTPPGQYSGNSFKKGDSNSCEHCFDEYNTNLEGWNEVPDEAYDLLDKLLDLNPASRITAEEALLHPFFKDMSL
Sequence of CDC7/DBF4 (Q9UBU7 whole entry partner): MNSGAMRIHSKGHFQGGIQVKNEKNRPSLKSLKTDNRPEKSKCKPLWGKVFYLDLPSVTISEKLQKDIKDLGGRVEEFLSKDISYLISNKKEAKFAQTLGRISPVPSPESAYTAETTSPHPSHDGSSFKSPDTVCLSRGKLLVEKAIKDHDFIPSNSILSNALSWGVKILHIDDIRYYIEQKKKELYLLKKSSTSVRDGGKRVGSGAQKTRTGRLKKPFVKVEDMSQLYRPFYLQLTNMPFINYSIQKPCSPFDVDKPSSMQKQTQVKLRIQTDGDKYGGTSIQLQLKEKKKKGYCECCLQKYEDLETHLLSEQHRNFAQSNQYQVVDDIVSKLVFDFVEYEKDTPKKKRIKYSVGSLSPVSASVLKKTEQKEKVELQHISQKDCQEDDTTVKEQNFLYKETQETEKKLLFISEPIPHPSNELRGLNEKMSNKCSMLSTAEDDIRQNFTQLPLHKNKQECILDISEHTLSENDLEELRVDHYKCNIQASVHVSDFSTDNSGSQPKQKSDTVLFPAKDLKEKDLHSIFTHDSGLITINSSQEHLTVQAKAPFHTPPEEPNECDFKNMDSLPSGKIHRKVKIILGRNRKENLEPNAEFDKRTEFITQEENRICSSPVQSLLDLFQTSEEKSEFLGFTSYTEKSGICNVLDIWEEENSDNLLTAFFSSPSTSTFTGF
Sequence of AKT1 (P31749 whole entry): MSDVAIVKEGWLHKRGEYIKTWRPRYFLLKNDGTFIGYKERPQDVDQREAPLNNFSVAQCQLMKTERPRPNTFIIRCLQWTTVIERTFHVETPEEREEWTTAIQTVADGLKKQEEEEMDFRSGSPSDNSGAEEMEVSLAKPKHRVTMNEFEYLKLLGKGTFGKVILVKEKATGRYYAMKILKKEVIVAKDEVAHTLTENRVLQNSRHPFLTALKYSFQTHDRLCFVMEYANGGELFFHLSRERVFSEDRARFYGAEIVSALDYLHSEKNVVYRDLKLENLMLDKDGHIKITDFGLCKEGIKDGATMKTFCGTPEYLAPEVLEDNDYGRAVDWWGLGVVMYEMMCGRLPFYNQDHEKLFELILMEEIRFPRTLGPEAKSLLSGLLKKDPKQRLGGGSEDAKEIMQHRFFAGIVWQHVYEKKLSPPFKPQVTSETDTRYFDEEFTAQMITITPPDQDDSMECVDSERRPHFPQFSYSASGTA

Turning to `COc1cc(-c2cncc(-c3ccc(N4CCN(C)CC4)cc3)c2C)cc(F)c1C(N)=O` [Compound 26a, 2-Fluoro-6-methoxy-4-(4-methyl-5-(4-(4-methylpiperazin-1-yl)phenyl)pyridin-3-yl)benzamide], in data set [1], the IC50 (usually the concentration needed to halve the response being measured) is above 50 µM. Further, the “% enzyme activity” value in data set [2] is recorded as 98.20%; in data set [3], 91.84%; in data set [4] it was 106.51%; in data set [5], 91.23%. Also, the remaining activity at 1 µM in data set [6] amounted to 106%; in data set [7], 98.1%; in data set [8] it was 97.8%; in [9], 97.4%; in data set [10], 99.2%; in [11], 77.3%. Further, the remaining activity at 1 µM in data set [12] was 96.2%; in data set [13], 89.1%.

For `COc1cc(-c2cncc(-c3ccc(N4C[C@@H](C)N(C)[C@@H](C)C4)cc3)c2C)cc(F)c1C(N)=O` [Compound 26c, 2-Fluoro-6-methoxy-4-(4-methyl-5-(4-((3R,5S)-3,4,5-trimethylpiperazin-1-yl)phenyl)pyridin-3-yl)benzamide], in data set [1], the IC50 is above 50 µM. The “% enzyme activity” value in [2] came out at 97.72%; in [3], 93.55%; in data set [4], 97.56%; in data set [5], 97.24%. Moreover, the remaining activity at 1 µM in data set [6] is 105%; in [7], 108%; in [8], 88%; in data set [9], 102%; in data set [10], 119%; in data set [11], 92.1%. For the same compound, the remaining activity at 1 µM in [12] is 97.9%; in [13] it was 95.7%.
